Measured values reported in PMC6486640, “The ATPase mechanism of UvrA2 reveals the distinct roles of proximal and distal ATPase sites in nucleotide excision repair” (Nucleic Acids Research, 2019).

What was measured:
[1] = biological target: T1, T. maritima UvrA Δ117-399 (Thermotoga maritima, UniProt Q9WYV0, DEL117-399); assay: X-ray crystal structure, […] Å; assay type: binding; settings: ADP in proximal and distal sites
T1 construct: internal deletion of 117-399; preparation in Supplementary Data

[2] = biological target: T2, UvrA2 (Geobacillus stearothermophilus, UniProt A0ACH1EC70); assay: global fit of pre-steady state Pi release (MDCC-PBP stopped-flow), KinTek Explorer; assay type: biochemical; settings: no DNA; pH 7.4, 5 mM MgCl2, 40°C; distal (high-affinity) sites; best-fit model value; proximal sites are a weaker second site
T2 construct: gene uvrA; pET28a-NHis-UvrA, N-terminal His tag, expressed in E. coli Rosetta (DE3) pLysS; heat-treated to remove ADP; homodimer with proximal and distal ATPase sites per monomer
Source text: global fit of pre-steady state Pi release (MDCC-PBP stopped-flow), KinTek Explorer on UvrA2

[3] = biological target: UvrA2 (UvrA dimer, wild type) (Geobacillus stearothermophilus, UniProt A0ACH1EC70 1-952); assay: fluorescence anisotropy; 0-250 nM UvrA2, 7.5 nM DNA; Equilibrium fluorescence anisotropy, 7.5 nM DNA, 0-250 nM UvrA2; anisotropy buffer and temperature not in the material (other assays of the paper: 20 mM Tris-HCl pH 7.4, 0.15 M NaCl, 5% glycerol, 5 mM MgCl2, 5 mM DTT, 40 C); settings: protein: recombinant, tags: N-terminal His (pET28a-NHis-UvrA), chain copies: 2, blunt

T1 sequence (Q9WYV0 other isoform, or with tags, fused parts or gaps DEL117-399): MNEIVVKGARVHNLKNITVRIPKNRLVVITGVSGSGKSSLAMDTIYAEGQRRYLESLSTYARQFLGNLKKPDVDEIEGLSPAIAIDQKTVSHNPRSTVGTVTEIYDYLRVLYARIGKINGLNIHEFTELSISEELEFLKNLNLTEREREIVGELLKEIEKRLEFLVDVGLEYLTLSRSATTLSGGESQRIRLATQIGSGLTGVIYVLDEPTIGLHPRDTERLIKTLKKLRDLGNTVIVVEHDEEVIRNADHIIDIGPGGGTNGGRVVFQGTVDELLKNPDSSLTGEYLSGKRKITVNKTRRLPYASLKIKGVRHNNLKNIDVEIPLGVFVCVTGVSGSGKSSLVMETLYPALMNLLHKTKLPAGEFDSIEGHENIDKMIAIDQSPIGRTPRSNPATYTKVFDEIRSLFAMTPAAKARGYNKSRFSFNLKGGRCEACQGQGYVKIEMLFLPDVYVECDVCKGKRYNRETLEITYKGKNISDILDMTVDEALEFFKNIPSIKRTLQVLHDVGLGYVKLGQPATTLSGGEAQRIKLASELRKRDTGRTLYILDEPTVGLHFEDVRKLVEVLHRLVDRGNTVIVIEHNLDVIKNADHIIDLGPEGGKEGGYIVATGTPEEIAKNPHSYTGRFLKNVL

Question: With `Nc1ncnc2c1ncn2[C@@H]1O[C@H](COP(=O)(O)OP(=O)(O)O)[C@@H](O)[C@H]1O` [ADP] as the molecule, how does the “X-ray crystal structure, 2.0 Å” value [1] read?
Answer: The value was “the fully ADP-bound structure reported here further supports this hypothesis”.

Question: Which Best-fit values [2] does the source give for `Nc1ncnc2c1ncn2[C@@H]1O[C@H](COP(=O)(O)OP(=O)(O)OP(=O)(O)O)[C@@H](O)[C@H]1O` [ATP] here?
Answer: The Best-fit values was 1 µM.

B1: fluorescein lesion DNA, 50 bp duplex (dsDNA)
DNA 1: CCTGTCAGCTCGTTCTGAGTTCCAGTAGTAATGTGGCCGTAAGTAATCCA
DNA 2: TGGATTACTTACGGCCACATTACTACTGGAACTCAGAACGAGCTGACAGG
modifications: internal fluorescein-dT (iFluorT) at position 26 of strand 1, acts as lesion
Question: How did the Kd ([3]; label: internal fluorescein (strand 1, T26)) turn out when B1 was run?
Answer: Its Kd is 12 ± 2 nM.

B2: native (undamaged) DNA, 50 bp duplex (dsDNA)
DNA 1: TGGATTACTTACGGCCACATTACTACTGGAACTCAGAACGAGCTGACAGG
DNA 2: CCTGTCAGCTCGTTCTGAGTTCCAGTAGTAATGTGGCCGTAAGTAATCCA
Question: Which Kd ([3]; label: 5' 6-FAM on strand 1 (template)) does the source give for B2 here?
Answer: Its Kd is 45 ± 7 nM.
